Assay results: patent publication US10858386B2, “Drug compound and purification methods thereof” (Otsuka Pharmaceutical Co., Ltd., priority 2017, dated 2020)
“And” between values parts separate entries of the source, which are not always exact repeats. Equal entries are not always repeated.

Assays:
Assay type in all cases: physicochemical
[1] = Reconstitution time of the lyophilized product in the diluent (65% propylene glycol, 25% glycerin, 10% ethanol); settings: 1 mL diluent
Description: (§1) The requirements of a constituted solution are that there is no visible insoluble material and the solution is no less clear than the diluent after a predetermined amount of time. The volume for reconstitution can return the product to the same volume and concentration as the bulk solution used for filling or may be the volume intended for patient delivery in a clinical setting.
For reconstitution, a specified volume of a diluent can be drawn up into a syringe. The diluent can then be extruded into the center of the dried cake of the product and the timer started. The product is then inspected at approximately 5 second intervals to determine the time material dissolved.
Reconstitution was performed by extruding 1 mL of diluent into each vial using a vial adapter or syringe and allowing the vials to sit undisturbed until clear.
(§2) Following lyophilization, the lyophilized samples were analysed for purity (% purity by HPLC), DMSO residual content, and residual moisture. The samples were reconstituted by dissolving them in the non-aqueous solvent system described in TABLE 11 below and the reconstitution time and appearance of the reconstituted formulations were analysed.

[2] = Turbidity of pooled reconstituted samples (Hach 2100AN turbidimeter, NTU)
Description: Turbidity monitors the transmission of light through a liquid sample to determine whether the sample is clear or the degree of opalescence in the sample. The analysis can be performed using a Hach Model 2100AN Laboratory Turbidimeter. The Hach Model 2100AN is a ratio turbidimeter that uses the ratio of transmitted to scattered light to reduce error in the measurement caused by colored solutions.
Prior to each use, the Turbidimeter is calibrated with a Hach StabCal® Calibration Kit and then checked using Hach Gelex® Secondary Turbidity Standards. Sample cells are cleaned and oiled to reduce interference by dirt or imperfections in the glass. Sample cell indexing matches cells with similar interference for sample comparison.
Reconstituted samples can be pooled to achieve at least 2.5 mL of sample, which is placed in the indexed sample cells for analysis. The turbidimeter measures the opalescence and returns a value in nephelometric turbidity units (NTU) ratio. This value was recorded by the instrument with a time and date stamp to track each sample.

[3] = Thermogravimetric analysis (TGA) weight loss of the lyophilized product
Description: TGA can be used as a corroborative method for residual moisture determination where the change in weight is attributed to the evolution of volatile substances, such as water. In addition, TGA can be used to deter mine physico-chemical changes as the specimen begins to decompose at elevated temperatures.
TGA monitors the change in weight of a material as a function of temperature or time with heating. The analysis can be performed using a TA Instruments QSO per USP 891, Thermal Analysis. Test parameters and data analysis can conducted using TA Instruments Universal Analysis® software version 4.5A on a PC interface.
Solid material, with a weight of about 13 mg to about 19 mg, can be placed in an open ceramic sample pan. The sample is then heated from 25° C. to 400° C. using a warming rate of about 10° C. per minute to measure the weight loss across the temperature range. Nitrogen, NF is used to purge the sample continuously at a flow rate of 60 mL/minute. The instrument is calibrated at temperatures that span the range of high temperature analysis.
The lyophilized material is warmed and the sample weight can be monitored for any change. During warming, weight loss is correlated to the evolution of volatile components in the sample. Calculations identify the sample weight correlated to a temperature.

[4] = Appearance of the reconstituted solution
Experimental: as §1, §2

[5] = Example 8 Study E: low shelf temperature, low chamber pressure, 15 microns in secondary drying
[6] = Example 8 Study F: target parameters of TABLE 18
[7] = Example 8 Study E, 3 pooled samples per lot

Row | Structure (SMILES) | Average Recon Time (min) [1, 5] | Average Recon Time (min) [1, 6] | Turbidity (NTU) [2, 7] | Weight Loss (% w/w), Total (TGA) ([3]; Example 8 Study F) | Weight Loss (% w/w), Total (TGA) ([3]; Example 8 Study G, one vial) | Average Recon Time [1, 6] [min] | Turbidity (NTU) ([2]; Example 8 Study G, 3 pooled samples) | Appearance of reconstituted solution ([4]; Example 7, lyophilization procedure of TABLE 16) | Appearance of reconstituted solution ([4]; Example 8 Study A) | Appearance of reconstituted solution ([4]; Example 8 Study B) | Appearance of reconstituted solution ([4]; Example 8 Study C) | Appearance of reconstituted solution ([4]; Example 8 Study D) | Appearance of reconstituted solution ([4]; Example 8 Study E) | Appearance of reconstituted solution ([4]; Example 8 Study F) | Appearance of reconstituted solution ([4]; Example 8 Study G) | Appearance of reconstituted solution ([4]; Example 8 Study H) | Appearance of reconstituted solution ([4]; Example 8 repeat of Study H) | TGA total weight loss ([3]; Example 2 full load, TABLE 6 cycle) [%] | Weight Loss (% w/w), Total (TGA) ([3]; Example 8 Study B, vial 1 and 2) | TGA mass loss ([3]; Example 8 repeat of Study H, one vial)
1 | Nc1ncn(C2CC(OP(=O)([O-])OCC3OC(n4cnc5c(=O)[nH]c(N)nc54)CC3O)C(CO)O2)c(=O)n1.[Na+] (stereo not drawn) [Lot 1] | Lot 1: 17 min | Lot 1: 17.3 min | 0.799 NTU and 0.833 NTU and 0.756 NTU | Total: 18.93 % w/w | Total: 16.7 % w/w | – | – | – | – | – | – | – | – | – | – | – | – | – | – | –
2 | Nc1ncn(C2CC(OP(=O)([O-])OCC3OC(n4cnc5c(=O)[nH]c(N)nc54)CC3O)C(CO)O2)c(=O)n1.[Na+] (stereo not drawn) [Lot 2] | Lot 2: 17 min | Lot 2: 18 min | 0.795 NTU and 0.808 NTU and 0.867 NTU | Total: 19.82 % w/w | – | – | – | – | – | – | – | – | – | – | – | – | – | – | – | –
3 | Nc1ncn([C@H]2CC(OP(=O)(O)OC[C@H]3O[C@@H](n4cnc5c(=O)[nH]c(N)nc54)CC3O)[C@@H](CO)O2)c(=O)n1 (stereo partly drawn) [compound of Formula (1)] | – | – | below 3 NTU | approximately 19 % w/w | approximately 17 % w/w | 17 to 18 | 16.9 NTU and 16 NTU and 19 NTU | clear reconstituted solution | clear and colorless solutions | clear and colorless solutions | clear and colorless solutions | clear and colorless solutions | clear and colorless solutions | clear and colorless solutions | clear and colorless solutions | clear and colorless solutions | clear and colorless solutions | 17 | 17.35 % w/w and 18.07 % w/w | about 17 % w/w
